Measurements reported in patent publication US10358454B2, “Marinopyrrole derivatives and methods of making and using same” (H. LEE MOFFITT CANCER CENTER AND RESEARCH INSTITUTE, INC., priority 2014, dated 2019).
Entries after “also recorded” stand apart in the source; their conditions may differ. Like-named read-outs stand apart in the source and are kept apart here.

Tests used:
[1] = biological target: Mcl-1/Bim (Homo sapiens, UniProt Q07820); test: Mcl-1/Bim ELISA (GST-Mcl-1 binding to biotinylated Bim BH3 peptide); details: for selectivity profile Mcl-1 vs Bcl-xL in words: from Mcl-1/Bim and Bcl-xL/Bim ELISA; for fold loss of potency against Mcl-1/Bim: 1-15 and 1-13 vs 1-10, 1-14 vs 1-11, 1-16 vs 1-15, 1-12 vs 1-9, 1-22, 1-21, 1-20 vs 1-23, 1-37 and N-Me methoxy analogue vs (±)-1; for selectivity for Mcl-1 over Bcl-xL (Mcl-1/Bim over Bcl-xL/Bim): ratio of ELISA IC50 values
Method: (§1) ELISAs were performed using a modified version of a previously described procedure (Doi K et al. J. Biol. Chem. 2012, 287, 10224-10235). Briefly, 40 nM of biotinylated Bim BH3 peptide (Biomatik) in SuperBlock blocking buffer (Pierce) was incubated in high-binding capacity streptavidin-coated plates (Pierce) for 2 h. Compounds were diluted in 120 μl of PBS containing 10 nM of GST-Mcl-1 or GST-Bcl-xL in 1.5 mL tubes for 15 min. Wells were washed with wash buffer (PBS containing 0.05% Tween-20) and then 100 μL of the compound/GST-protein mixture was transferred to the wells. The plates were incubated for 2 h, and then the wells were washed with wash buffer. HRP-conjugated anti-GST antibody (Bethyl Laboratories) was diluted 1:2000 in SuperBlock and 100 μL was transferred to each well. The plate was incubated for 1 h, and then the wells were washed with wash buffer followed by PBS. 100 μL of SureBlue TMB Microwell Peroxidase Substrate (VWR) was added to each well and plates were developed for 5-10 min. 100 μL of 1 N HCl was added to each well to stop the reaction and absorbance was read at 450 nm using a μQuant plate reader (Bio-Tek).
(§2) ELISAs were performed using a similar procedure as previously described (Doi K, et al. J. Biol. Chem. 2012, 287, 10224-10235). Briefly, 40 nM of biotinylated Bim BH3 peptide (Biomatik) in SuperBlock blocking buffer (Pierce) was incubated in high-binding capacity streptavidin-coated plates (Pierce) for 2 h. Compounds were diluted in 120 μl of PBS containing 10 nM of GST-Mcl-1 or GST-Bcl-xL in 1.5 mL tubes for 15 min. Wells were washed with wash buffer (PBS containing 0.05% Tween-20) and then 100 μL of the compound/GST-protein mixture was transferred to the wells. The plates were incubated for 2 h, and then wells were washed with wash buffer. HRP-conjugated anti-GST antibody (Bethyl Laboratories) was diluted 1:2000 in SuperBlock and 100 μL was transferred to each well. The plate was incubated for 1 h, and then wells were washed with wash buffer followed by PBS. 100 μL of SureBlue TMB Microwell Peroxidase Substrate (VWR) was added to each well and plates were developed for 5-10 min. 100 μL of 1 N HCl was added to each well to stop the reaction and absorbance was read at 450 nm using μQuant plate reader (Bio-Tek).

[2] = biological target: Bcl-xL/Bim (Homo sapiens, UniProt Q07817); test: Bcl-xL/Bim ELISA (GST-Bcl-xL binding to biotinylated Bim BH3 peptide)
Method: as §1, §2

[3] = Table 2-B, n ≥ 3 unless specified, read-out: Bcl-xL/Bim IC50 (average ± SEM)
[4] = Table 3-A structure I, Bcl-xL at 10 nM, n ≥ 3, read-out: Bcl-xL-Bim IC50 (average ± SEM)
[5] = Table 2-B, n ≥ 3, read-out: Mcl-1/Bim IC50 (average ± SEM)
[6] = Table 3-A structure I, Mcl-1 at 10 nM, n ≥ 3, read-out: Mcl-1-Bim IC50 (average ± SEM)
[7] = read-out: IC50 to inhibit the binding of Mcl-1 to Bim
[8] = read-out: IC50 to inhibit Bcl-xL/Bim binding
[9] = Table 2-A, n ≥ 3, read-out: Bcl-xL/Bim IC50 (average ± SEM)
[10] = Table 3-B structure II, n ≥ 3, read-out: Bcl-xL-Bim IC50 (average ± SEM)
[11] = Table 2-A, n ≥ 3, read-out: Mcl-1/Bim IC50 (average ± SEM)
[12] = Table 3-B structure II, n ≥ 3, read-out: Mcl-1-Bim IC50 (average ± SEM)

Chain of Bcl-xL/Bim (Q07817 whole entry): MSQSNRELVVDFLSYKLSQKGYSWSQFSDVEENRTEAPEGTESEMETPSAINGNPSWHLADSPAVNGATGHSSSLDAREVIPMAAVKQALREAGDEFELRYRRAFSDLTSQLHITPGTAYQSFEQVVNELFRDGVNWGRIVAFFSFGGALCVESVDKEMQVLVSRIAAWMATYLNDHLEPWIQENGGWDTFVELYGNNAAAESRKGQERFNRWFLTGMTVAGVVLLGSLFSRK
Chain of Mcl-1/Bim (Q07820 whole entry): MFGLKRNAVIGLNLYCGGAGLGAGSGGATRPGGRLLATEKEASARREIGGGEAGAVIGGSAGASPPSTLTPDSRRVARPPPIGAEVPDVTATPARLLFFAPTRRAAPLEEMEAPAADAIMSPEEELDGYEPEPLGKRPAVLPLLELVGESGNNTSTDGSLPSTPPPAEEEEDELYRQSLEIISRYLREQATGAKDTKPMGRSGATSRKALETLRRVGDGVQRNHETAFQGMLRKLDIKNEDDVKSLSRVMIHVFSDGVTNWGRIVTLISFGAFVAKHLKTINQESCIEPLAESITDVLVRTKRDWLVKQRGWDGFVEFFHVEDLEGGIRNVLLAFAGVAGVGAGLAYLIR

With `O=C(c1ccc(C(F)(F)F)cc1O)c1[nH]c(Cl)c(Cl)c1-n1c(C(=O)c2ccc(C(F)(F)F)cc2O)cc(Cl)c1Cl` [Compound 1-1] the “selectivity profile Mcl-1 vs Bcl-xL in words” value [1] was “dual Mcl-1 and Bcl-XL antagonists”.

`Cc1cc(O)c(C(=O)c2[nH]c(Cl)c(Cl)c2-n2c(C(=O)c3cc(Cl)c(C)cc3O)cc(Cl)c2Cl)cc1Cl` [Compound 1-2, (4,4′,5,5′-Tetrachloro-1′H-1,3′-bipyrrole-2,2′-diyl)bis((5-chloro-2-hydroxy-4-methylphenyl)methanone)] showed an IC50 [2, 3] of 2.5 ± 0.4 µM, an IC50 [2, 4] of 2.5 ± 0.4 µM and an IC50 [1, 5] of 2.6 ± 0.6 µM. The IC50 [1, 6] was 2.6 ± 0.6 µM and the “selectivity profile Mcl-1 vs Bcl-xL in words” value [1] was “dual Mcl-1 and Bcl-XL antagonists”.

Compound `O=C(c1ccc(OS(=O)(=O)C(F)(F)F)cc1O)c1[nH]c(Cl)c(Cl)c1-n1c(C(=O)c2ccc(OS(=O)(=O)C(F)(F)F)cc2O)cc(Cl)c1Cl` [Compound 1-6, (4,4′,5,5′-tetrachloro-1′H-1,3′-bipyrrole-2,2′-diyl)bis(((2-hydroxy-4-hydroxytrifluoromethanesulfonate)-phenyl)methanone)] has an IC50 [2, 3] of 2.5 ± 0.7 µM, an IC50 [2, 4] of 2.1 ± 0.7 µM and an IC50 [1, 5] of 1 ± 0.3 µM. For the same compound, the IC50 [1, 6] was 1 ± 0.3 µM and the IC50 [1, 7] was 1 µM.

With `O=C(c1ccc(O)cc1O)c1[nH]c(Cl)c(Cl)c1-n1c(C(=O)c2ccc(O)cc2O)cc(Cl)c1Cl` [Compound 1-7] the IC50 [2, 3] was greater than 50 µM, the IC50 [2, 4] was greater than 50 µM and the “activity against Mcl-1/Bim in words” value [1] was “lost potency”.

With `O=C(c1cc(Cl)c(O)cc1O)c1[nH]c(Cl)c(Cl)c1-n1c(C(=O)c2cc(Cl)c(O)cc2O)cc(Cl)c1Cl` [Compound 1-8] the IC50 [2, 3] was greater than 50 µM and the IC50 [2, 4] was greater than 50 µM.

`CCOC(=O)CSc1ccc(C(=O)c2[nH]c(Cl)c(Cl)c2-n2c(C(=O)c3ccc(SCC(=O)OCC)cc3O)cc(Cl)c2Cl)c(O)c1` [Compound 1-9] was tested, and the “fold enhancement of potency against Bcl-xL/Bim” value ([2]; 1-9 vs 1-15) was “over 83 fold”, the IC50 [2, 4] was 1.2 ± 0.2 µM and the “fold improvement of potency against Mcl-1/Bim” value ([1]; 1-9 vs 1-15) was 3.4 fold. It also gave an IC50 [1, 6] of 1.8 ± 0.3 µM.

With `O=C(c1ccc(SCc2ccccc2)cc1O)c1[nH]c(Cl)c(Cl)c1-n1c(C(=O)c2ccc(SCc3ccccc3)cc2O)cc(Cl)c1Cl` [Compound 1-10, (4,4′,5,5′-Tetrachloro-1′H-1,3′-bipyrrole-2,2′-diyl)bis(((2-hydroxy-4-benzylthio)phenyl)methanone)] the IC50 [2, 8] was 0.6 µM, the IC50 [1, 6] was 0.7 ± 0.2 µM and the “selectivity profile Mcl-1 vs Bcl-xL in words” value [1] was “most potent dual Mcl-1 and Bcl-xL antagonists”.

`COc1ccc(CSc2ccc(C(=O)c3[nH]c(Cl)c(Cl)c3-n3c(C(=O)c4ccc(SCc5ccc(OC)cc5)cc4O)cc(Cl)c3Cl)c(O)c2)cc1` [Compound 1-11] was tested, and the IC50 [2, 4] was 0.6 ± 0.1 µM and the IC50 [1, 5] was 0.7 ± 0.1 µM.

With `CCOC(=O)CS(=O)(=O)c1ccc(C(=O)c2[nH]c(Cl)c(Cl)c2-n2c(C(=O)c3ccc(S(=O)(=O)CC(=O)OCC)cc3O)cc(Cl)c2Cl)c(O)c1` [Compound 1-12] the IC50 [2, 3] was greater than 50 µM, the “fold loss of potency against Mcl-1/Bim” value [1] was 21 fold and the IC50 [1, 5] was 37.3 ± 3.1 µM.

`O=C(c1ccc(S(=O)(=O)Cc2ccccc2)cc1O)c1[nH]c(Cl)c(Cl)c1-n1c(C(=O)c2ccc(S(=O)(=O)Cc3ccccc3)cc2O)cc(Cl)c1Cl` [Compound 1-13, (4,4′,5,5′-Tetrachloro-1′H-1,3′-bipyrrole-2,2′-diyl)bis(((2-hydroxy-4-benzylsulfonyl)phenyl)methanone)] was tested, and the IC50 [2, 4] was 69.3 ± 5.8 µM, the “fold loss of potency against Mcl-1/Bim” value [1] was 16 fold and the IC50 [1, 5] was 11.2 ± 4 µM. It also gave an IC50 [1, 6] of 7.3 ± 1.4 µM.

`COc1ccc(CS(=O)(=O)c2ccc(C(=O)c3[nH]c(Cl)c(Cl)c3-n3c(C(=O)c4ccc(S(=O)(=O)Cc5ccc(OC)cc5)cc4O)cc(Cl)c3Cl)c(O)c2)cc1` [Compound 1-14] was tested, and the “fold loss of potency against Mcl-1/Bim” value [1] was 25 fold and the IC50 [1, 5] was 17.4 ± 3.1 µM.

Compound `O=C(O)CSc1ccc(C(=O)c2[nH]c(Cl)c(Cl)c2-n2c(C(=O)c3ccc(SCC(=O)O)cc3O)cc(Cl)c2Cl)c(O)c1` [Compound 1-15] has an IC50 [2, 3] greater than 100 µM, an IC50 [2, 4] greater than 100 µM and an IC50 [2, 8] greater than 100 µM. The “fold loss of potency against Mcl-1/Bim” value [1] was 8.7 fold, the IC50 [1, 5] was 6.1 ± 1.3 µM and the IC50 [1, 6] was 6.1 ± 1.3 µM. The “selectivity profile Mcl-1 vs Bcl-xL in words” value [1] was “much more selective for Mcl-1 over Bcl-xL”, the “selectivity for Mcl-1 over Bcl-xL (Mcl-1/Bim over Bcl-xL/Bim)” value (from here on “selectivity for Mcl-1 over Bcl-xL”) [1] was “over 16 fold” and the IC50 ([1]; read-out: IC50 to disrupt Mcl-1/Bim binding) was 6.1 µM.

`O=C(O)CS(=O)(=O)c1ccc(C(=O)c2[nH]c(Cl)c(Cl)c2-n2c(C(=O)c3ccc(S(=O)(=O)CC(=O)O)cc3O)cc(Cl)c2Cl)c(O)c1` [Compound 1-16] was tested, and the “activity against Mcl-1/Bim in words” value [1] was “lost potency”, the “fold loss of potency against Mcl-1/Bim” value [1] was 10 fold and the IC50 [1, 6] was 63 ± 5.4 µM.

For `CCOC(=O)Cn1cc(-c2cc(O)c(C(=O)c3[nH]c(Cl)c(Cl)c3-n3c(C(=O)c4cc(Cl)c(-c5cn(CC(=O)OCC)nn5)cc4O)cc(Cl)c3Cl)cc2Cl)nn1` [Compound 1-17, Diethyl 2,2′-(4,4′-((4,4′,5,5′-tetrachloro-1′H-1,3′-bipyrrole-2,2′-dicarbonyl)bis(2-chloro-5-hydroxy-4,1-phenylene))bis(1H-1,2,3-triazole-4,1-diyl))diacetate], the “activity against Bcl-xL/Bim in words” value [2] was “not active”, the IC50 [2, 9] was greater than 100 µM and the IC50 [2, 10] was greater than 100 µM. The IC50 [1, 11] was 7.8 ± 1.5 µM, the IC50 [1, 12] was 7.8 ± 1.5 µM and the “selectivity for Mcl-1 over Bcl-xL” value [1] was 12.9 fold. For the same compound, the IC50 [1, 7] was 7.8 µM.

In the case of `CC(C)(C)OC(=O)Cn1cc(-c2cc(O)c(C(=O)c3[nH]c(Cl)c(Cl)c3-n3c(C(=O)c4cc(Cl)c(-c5cn(CC(=O)OC(C)(C)C)nn5)cc4O)cc(Cl)c3Cl)cc2Cl)nn1` [Compound 1-18, Di-tert-butyl 2,2′-(4,4′-((4,4′,5,5′-tetrachloro-1′H-1,3′-bipyrrole-2,2′-dicarbonyl)bis(2-chloro-5-hydroxy-4,1-phenylene))bis(1H-1,2,3-triazole-4,1-diyl))diacetate], the “selectivity for Mcl-1 over Bcl-xL” value [1] is reported as 8.3 fold.

In the case of `CCOC(=O)Cn1cc(-c2ccc(C(=O)c3[nH]c(Cl)c(Cl)c3-n3c(C(=O)c4ccc(-c5cn(CC(=O)OCC)nn5)cc4O)cc(Cl)c3Cl)c(O)c2)nn1` [Compound 1-24, Diethyl 2,2′-(4,4′-((4,4′,5,5′-tetrachloro-1′H-1,3′-bipyrrole-2,2′-dicarbonyl)bis(3-hydroxy-4,1-phenylene))bis(1H-1,2,3-triazole-4,1-diyl))diacetate], the “activity against Bcl-xL/Bim in words” value [2] is reported as “not tolerated; also recorded: not active”, the IC50 [2, 9] is reported as greater than 100 µM and the IC50 [2, 10] is reported as greater than 100 µM. The IC50 [1, 11] was 18.4 ± 0.3 µM, the IC50 [1, 12] was 18.4 ± 0.3 µM and the “selectivity for Mcl-1 over Bcl-xL” value [1] was 5.4 fold. For the same compound, the IC50 [1, 7] was 18.4 µM.

`CC(C)(C)OC(=O)Cn1cc(-c2ccc(C(=O)c3[nH]c(Cl)c(Cl)c3-n3c(C(=O)c4ccc(-c5cn(CC(=O)OC(C)(C)C)nn5)cc4O)cc(Cl)c3Cl)c(O)c2)nn1` [Compound 1-25, Di-tert-butyl 2,2′-(4,4′-((4,4′,5,5′-tetrachloro-1′H-1,3′-bipyrrole-2,2′-dicarbonyl)bis(3-hydroxy-4,1-phenylene))bis(1H-1,2,3-triazole-4,1-diyl))diacetate] was tested, and the “selectivity for Mcl-1 over Bcl-xL” value [1] was 1.6 fold.

With `O=C(O)Cn1cc(-c2ccc(C(=O)c3[nH]c(Cl)c(Cl)c3-n3c(C(=O)c4ccc(-c5cn(CC(=O)O)nn5)cc4O)cc(Cl)c3Cl)c(O)c2)nn1` [Compound 1-26, 2,2′-(4,4′-((4,4′,5,5′-Tetrachloro-1′H-1,3′-bipyrrole-2,2′-dicarbonyl)bis(3-hydroxy-4,1-phenylene))bis(1H-1,2,3-triazole-4,1-diyl))diacetic acid] the “activity against Bcl-xL/Bim in words” value [2] was “not tolerated; also recorded: not active”, the IC50 [2, 9] was greater than 50 µM and the IC50 [2, 10] was greater than 50 µM. The IC50 [1, 11] was 16.5 ± 1.9 µM, the IC50 [1, 12] was 16.5 ± 1.9 µM and the “selectivity for Mcl-1 over Bcl-xL” value [1] was 3.0 fold. The IC50 [1, 7] was 16.5 µM.
